Counter-ions that a name gives are not always drawn.
Tests used:
H358 = experiment: ChemoFx chemoresponse assay, erlotinib, H358 cell line; type: cell-based, human; settings: Log EC50 by dose number, mean of 3 assays
Protocol: (§1) Three human lung tumor-derived immortalized cell lines were tested in this study: H292, H358, and Calu3 (American Type Culture Collection, Manassas, Va.). These cell lines were seeded at 40,000 cells in T25 flasks (PGC Scientifics, Frederick, Md.) and allowed to grow for one week to approximately 90% confluence.
(§2) Cell lines and tissue specimens were processed and tested with the ChemoFx® assay as described elsewhere. Also see, U.S. Pat. Nos. 5,728,541, 6,900,027, 6,887,680, 6,933,129, 6,416,967, 7,112,415, and 7,314,731; and U.S. application Ser. Nos. 10/399,563, 11/504,098, 11/595,967, 11/713,662, and 11/785,984, all of which are hereby incorporated by reference in their entireties, and especially with regard to tissue processing and cell culturing techniques, and assays. Ten doses of erlotinib were prepared by serial dilution. The same 10-dose concentration range was used for the cell lines and the tissue specimens. For each dose, a cytotoxic index (CI) was calculated according to the following formula: CI=Mean cell countdose x/mean cell countcontrol, which represents the ratio of cells killed as a result of the treatment. Cell counts were the average of 3 replicates at each dose for primary cultures and 9 replicates at each dose for immortalized cell lines. […] Adjusted areas under the curve (aAUC) were calculated for each dose-response curve as previously described.

Calu-3 = experiment: ChemoFx chemoresponse assay, erlotinib, Calu-3 cell line; type: cell-based, human; settings: Calu3; Log EC50 by dose number, mean of 3 assays
Protocol: as §1, §2

Calu3 xenograft = settings: tumor growth inhibition; cited from earlier work
H292 = experiment: ChemoFx chemoresponse assay, erlotinib, H292 cell line; type: cell-based, human; settings: Log EC50 by dose number, mean of 3 assays
Protocol: as §1, §2

[1] = test system: primary cultures of lung cancer; experiment: ChemoFx chemoresponse assay, erlotinib, primary cultures of lung cancer; type: cell-based, human; settings: 34 lung cancer tumors; 72-hour treatment
Description: Patient tumor specimens: Primary cell cultures were established using tumor specimens procured for research purposes from the following sources: National Disease Research Interchange (Philadelphia, Pa.), Cooperative Human Tissue Network (Philadelphia, Pa.), Forbes Regional Hospital (Monroeville, Pa.), Jameson Hospital (New Castle, Pa.), Saint Barnabas Medical Center (Livingston, N.J.), Hamot Medical Center (Erie, Pa.), and Windber Research Institute (Windber, Pa.). The tumors were removed from the patient at the time of surgery, placed in the supplied 125-mL bottle containing sterile McCoy's shipping medium (Mediatech, Herndon, Va.), and shipped overnight to Precision Therapeutics, Inc. laboratories (Pittsburgh, Pa.).
Cell lines and tissue specimens were processed and tested with the ChemoFx® assay as described elsewhere. Also see, U.S. Pat. Nos. 5,728,541, 6,900,027, 6,887,680, 6,933,129, 6,416,967, 7,112,415, and 7,314,731; and U.S. application Ser. Nos. 10/399,563, 11/504,098, 11/595,967, 11/713,662, and 11/785,984, all of which are hereby incorporated by reference in their entireties, and especially with regard to tissue processing and cell culturing techniques, and assays. Ten doses of erlotinib were prepared by serial dilution. The same 10-dose concentration range was used for the cell lines and the tissue specimens. For each dose, a cytotoxic index (CI) was calculated according to the following formula: CI=Mean cell countdose x/mean cell countcontrol, which represents the ratio of cells killed as a result of the treatment. Cell counts were the average of 3 replicates at each dose for primary cultures and 9 replicates at each dose for immortalized cell lines. Dose response curves were generated using the CI at each dose. Adjusted areas under the curve (aAUC) were calculated for each dose-response curve as previously described.

H292 xenograft = settings: tumor growth inhibition; cited from earlier work
H358 xenograft = settings: tumor growth inhibition; cited from earlier work
MDA-MB-231 = experiment: Chemoresponse assay, lapatinib, MDA-MB-231; type: cell-based; settings: 72 hours
Protocol: (§3) The chemoresponse assay for lapatinib was developed using four different immortalized cell lines (SK-OV3, BT474, MDA-MB-231, MCF7). In addition to cell lines, the chemoresponse assay was also performed on 55 primary cultures of breast carcinomas. […] Cell lines and specimens were treated with a 10 dose concentration range of lapatinib for 72 hours and stained with DAPI; remaining live cells were counted on an inverted fluorescent microscope.

MCF7 = experiment: Chemoresponse assay, lapatinib, MCF7; type: cell-based; settings: 72 hours
Protocol: as §3

BT474 = experiment: Chemoresponse assay, lapatinib, BT474; type: cell-based
Protocol: as §3

SK-OV3 = experiment: Chemoresponse assay, lapatinib, SK-OV3; type: cell-based
Protocol: as §3

[2] = test system: primary cultures of breast carcinomas; experiment: Chemoresponse assay, lapatinib, primary cultures of breast carcinomas; type: cell-based, human; settings: 55 primary breast cultures; 72 hours
Protocol: as §3

Row | Structure (SMILES) | Mean (Log EC50*) (H358) | Mean (Log EC50*) (Calu-3) | Xenograft TGI (%) [22] (Calu3 xenograft) | Mean (Log EC50*) (H292) | specimens Intermediate Responsive to erlotinib [1] | specimens Non-Responsive to erlotinib [1] | specimens Responsive to erlotinib [1] | Xenograft TGI (%) [22] (H292 xenograft) | Xenograft TGI (%) [22] (H358 xenograft) | response to lapatinib treatment (MDA-MB-231) | EC50 (MDA-MB-231; Homo sapiens) | response to lapatinib treatment (MCF7) | EC50 (MCF7; Homo sapiens) | response to lapatinib treatment (BT474; 72 hours) | EC50 (BT474; Homo sapiens, BT-474, 72 hours) | response to lapatinib treatment (SK-OV3; 72 hours) | EC50 (SK-OV3; Homo sapiens, SK-OV-3, 72 hours) | specimens non-responsive to lapatinib [2] | specimens responsive to lapatinib [2] | specimens with intermediate response to lapatinib [2]
1 | C#Cc1cccc(Nc2ncnc3cc(OCCOC)c(OCCOC)cc23)c1 [erlotinib, Erlotinib hydrochloride] | 5.925 dose number | 6.715 dose number | 67% | 4.731 dose number | 20.6% | 70.6% | 8.8% | 85% | 25% | – | – | – | – | – | – | – | – | – | – | –
2 | CS(=O)(=O)CCNCc1ccc(-c2ccc3ncnc(Nc4ccc(OCc5cccc(F)c5)c(Cl)c4)c3c2)o1 [lapatinib, Lapatinib] | – | – | – | – | – | – | – | – | – | responsive | ~10 µM | responsive | ~10 µM | responsive | ~10 µM | responsive | ~10 µM | 76% | 9% | 15%
